Test results published in patent US20100209486A1, “Method of enhancing CoenzymeQ10 levels in mammals” (priority 2009, published 2010).
Values joined by “and” are separate entries in the source; they are usually repeats but may differ in a detail not shown here. Equal values may be shown once. Marks after values point to notes of the source that are not given here.

Key:
[1] = system: isolated guinea pig hearts; assay: Recovery of post-ischemic cardiac function (HR, CF, AF, LVDP) in isolated working guinea pig hearts; type: in vivo; conditions: 5 mg/kg/day oral for 4 weeks; for aortic flow (AF), After 60 min of RE / coronary flow (CF), After 60 min of RE / heart rate (HR), After 60 min of RE / left ventricular developed pressure (LVDP), After 60 min of RE / aortic flow (AF), After 120 min of RE / heart rate (HR), After 120 min of RE / coronary flow (CF), After 120 min of RE / left ventricular developed pressure (LVDP), After 120 min of RE: 30 min ischemia; for aortic flow (AF), After 60 min of RE / coronary flow (CF), After 60 min of RE / heart rate (HR), After 60 min of RE / left ventricular developed pressure (LVDP), After 60 min of RE: 60 min reperfusion; for aortic flow (AF), After 120 min of RE / heart rate (HR), After 120 min of RE / coronary flow (CF), After 120 min of RE / left ventricular developed pressure (LVDP), After 120 min of RE: 120 min reperfusion; for aortic flow (AF), Before ISA / coronary flow (CF), Before ISA / heart rate (HR), Before ISA / left ventricular developed pressure (LVDP), Before ISA: isolated heart before ischemia
Description: Experimental studies were designed to determine if CoQ9 could protect guinea pig hearts from ischemia reperfusion injury. Myocardial ischemia reperfusion injury model is the most widely accepted experimental method for assessment of parameters related to cardio-protection. Guinea pigs were randomly divided into three groups: Group II and Group III were supplemented with 5 mg/kg bodyweight of CoQ9 and CoQ10, respectively, for 4 weeks while Group I served as control (C). After 4 weeks, the guinea pigs were sacrificed and the isolated hearts were perfused via working mode. The isolated hearts were subjected to ischemia for 30 min followed by 2 hours of reperfusion. Cardioprotection was assessed by evaluating left ventricular function, ventricular arrhythmias, myocardial infarct size and cardiomyocyte apoptosis.
Similar types of post-ischemic recovery of HR, CF, and LVDP were registered (Table 1) in isolated hearts obtained from guinea pigs treated with 5 mg/kg/day of CoQ10 or CoQ9 for 4 weeks. The improvement in post-ischemic cardiac function (HR, CF, AF, and LVDP) was more pronounced in the CoQ9 treated group than in the CoQ10 treated group.
Protective effect of CoQ9 and CoQ10 against from Ventricular Fibrillation (VF): Healthy Male Hartley guinea pigs of about 350-400 gm body weight were randomly divided into three groups, Control, CoQ9 and CoQ10. The guinea pigs were given orally 5 mg/kg body weight [in 0.5 ml water] of vehicle only, CoQ9 or CoQ10 respectively by gavage once a day. […] Treatment was continued for 30 days, the animals had free access to food and water. After 30 days, all animals were anesthetized, heparinized and sacrificed. The hearts excised, and isolated for perfusion via Langendorff mode for 5 min of washout period of the Langendorff heart perfusion, the pulmonary vein was cannulated, and the heart was switched to the “working” mode via perfusion of the left atria (at a filling pressure of 17 cm of the buffer, 1.7 kPa) as it was described in detail elsewhere. Global ischemia was imposed by clamping the atrial and aortic cannulas. Epicardial ECG was recorded through out the experiment, by attaching two silver electrodes directly to the myocardium and data collected using a data acquisition system (ADInstruments, Powerlab, Castle Hill, Australia). ECGs were analyzed to determine ventricular fibrillation (VF) and ventricular tachycardia (VT). The first 10 min of reperfusion was done in Langendorf (‘nonworking’) mode in order to avoid the development of reperfusion-induced VT and VF during the ‘working’ heart reperfusion. After the initial 2 min of VT or/and VF (sustained VF) in Langendorff reperfusion, hearts were defibrillated (if it was necessary), reperfused for an additional 8 min in Langendorff mode, and switched to ‘working heart’ reperfusion, and myocardial function was recorded. The heart was considered to be in VF if an irregular undulating baseline was apparent on the ECG. The data of VT, VF and sinus rhythm show their durations (in seconds) within the first 120 s of nonworking Langendorff reperfusion. The incidences of reperfusion-induced ventricular fibrillation (VF) for CoQ9 and CoQ10 are depicted in FIG. 1. […] Incidence of VF was reduced from 92% (control group) to 25% (*p<0.05) and 8% (*p<0.05) with 5 mg/kg/day of CoQ10 and CoQ9, respectively.
CoQ9 and CoQ10 treatment improves post-ischemic cardiac function (HR, CF, AF, and LVDP): Animal preparation, drug pretreatment and isolated working heart preparation were done as described in example 1. The isolated hearts obtained from group II and Group III guinea pigs treated with 5 mg/kg/day of […], for 4 weeks were subjected to 30 min ischemia followed by 120 min of reperfusion. […]

[2] = system: isolated guinea pig hearts; assay: Myocardial infarct size (TTC staining) in isolated ischemic/reperfused guinea pig hearts; type: in vivo; conditions: 5 mg/kg/day oral for 4 weeks; 30 min global ischemia, 120 min reperfusion; ratio infarct zone to risk zone; control 38±4.1%
Description: FIG. 2/A Effects of CoQ10 and CoQ9 on infarct size in isolated guinea pig hearts subjected to 30 min of ischemia followed by 120 min of reperfusion. The bars represent mean±SD of infarct size for control, CoQ10 and CoQ9 supplemented groups. *p<0.05 compared to the untreated age-matched ischemic/reperfused drug-free control (C) value. N=12 in each group.
Experimental studies were designed to determine if CoQ9 could protect guinea pig hearts from ischemia reperfusion injury. Myocardial ischemia reperfusion injury model is the most widely accepted experimental method for assessment of parameters related to cardio-protection. […] Cardioprotection was assessed by evaluating left ventricular function, ventricular arrhythmias, myocardial infarct size and cardiomyocyte apoptosis.
CoQ9 and CoQ10 treatment protects from cardiac infarction: Animal preparation, drug pretreatment and isolated working heart preparation were done as described in example 1. […] Using the NIH Image 1.61 image processing software, Infarct zones of each slice were traced and the respective areas were calculated in terms of pixels. The areas were measured by computerized planimetry software and these areas were multiplied by the weight of each slice, then the results summed up to obtain the weight of the risk zone. Infarct size was calculated as the ratio, in percent, of the infarct zone to the risk zone. […]

Row | SMILES | aortic flow (AF), After 60 min of RE [1] | coronary flow (CF), After 60 min of RE [1] | heart rate (HR), After 60 min of RE [1] | left ventricular developed pressure (LVDP), After 60 min of RE [1] | aortic flow (AF), After 120 min of RE [1] | heart rate (HR), After 120 min of RE [1] [beats/min] | aortic flow (AF), Before ISA [1] [mL/min] | heart rate (HR), Before ISA [1] [beats/min] | left ventricular developed pressure (LVDP), Before ISA [1] [mm Hg] | infarct size [2] [%] | other results
1 | COC1=C(OC)C(=O)C(C/C=C(\C)CC/C=C(\C)CC/C=C(\C)CC/C=C(\C)CC/C=C(\C)CC/C=C(\C)CC/C=C(\C)CC/C=C(\C)CCC=C(C)C)=C(C)C1=O [CoQ9, Coenzyme Q9] | 27 ± 1* ml/min | 22 ± 2* ml/min | 240 ± 4* beats/min | 80 ± 2* mm Hg | 26.0 ± 1.0 mL/min | 233±4 | 35 ± 2 | 248 ± 5 | 106 ± 4 | 16.3±3.2 | aortic flow (AF), After 120 min of RE ([1]; listed as CoQ 9): 26 ± 1 mL/min; coronary flow (CF), After 120 min of RE ([1]; listed as CoQ 9): 25 ± 2 mL/min; left ventricular developed pressure (LVDP), After 120 min of RE ([1]; listed as CoQ 9): 75±2 mm Hg; aortic flow (AF), After 120 min of RE ([1]; listed as Q9): 26 ± 1* ml/min; coronary flow (CF), After 120 min of RE ([1]; listed as Q9): 25 ± 2* ml/min; heart rate (HR), After 120 min of RE ([1]; listed as Q9): 233 ± 4* beats/min; left ventricular developed pressure (LVDP), After 120 min of RE ([1]; listed as Q9): 75 ± 2* mm Hg; coronary flow (CF), Before ISA [1]: 23 ± 2 mL/min; coronary flow (CF), Before ISA ([1]; listed as Q9): 23 ± 2 mL/min
2 | COC1=C(OC)C(=O)C(C/C=C(\C)CC/C=C(\C)CC/C=C(\C)CC/C=C(\C)CC/C=C(\C)CC/C=C(\C)CC/C=C(\C)CC/C=C(\C)CC/C=C(\C)CCC=C(C)C)=C(C)C1=O [CoQ10, Coenzyme Q10, reference compound] | 20 ± 2* ml/min | 20 ± 1* ml/min | 228 ± 3* beats/min | 71 ± 3* mm Hg | 18.0 ± 2.0 mL/min and 18 ± 2 mL/min | 217±3 | 34 ± 2 | 261 ± 6 | 100 ± 5 | 21.1±5 | coronary flow (CF), After 120 min of RE [1]: 19 ± 1 mL/min; left ventricular developed pressure (LVDP), After 120 min of RE [1]: 64±3 mm Hg; aortic flow (AF), After 120 min of RE ([1]; listed as Q10): 18 ± 2* ml/min; coronary flow (CF), After 120 min of RE ([1]; listed as Q10): 19 ± 1* ml/min; heart rate (HR), After 120 min of RE ([1]; listed as Q10): 217 ± 3* beats/min; left ventricular developed pressure (LVDP), After 120 min of RE ([1]; listed as Q10): 64 ± 3* mm Hg; coronary flow (CF), Before ISA ([1]; listed as CoQ 10): 25 ± 2 mL/min; coronary flow (CF), Before ISA ([1]; listed as Q10): 25 ± 2 mL/min
